The target of the assay is T1, human renin (Homo sapiens, UniProt P00797).
T1 construct: A human plasma pool is used as the source of both the substrate (angiotensinogen) and the enzyme (renin); from tissue; host or cells: pooled human plasma
T1 sequence (P00797 67-406): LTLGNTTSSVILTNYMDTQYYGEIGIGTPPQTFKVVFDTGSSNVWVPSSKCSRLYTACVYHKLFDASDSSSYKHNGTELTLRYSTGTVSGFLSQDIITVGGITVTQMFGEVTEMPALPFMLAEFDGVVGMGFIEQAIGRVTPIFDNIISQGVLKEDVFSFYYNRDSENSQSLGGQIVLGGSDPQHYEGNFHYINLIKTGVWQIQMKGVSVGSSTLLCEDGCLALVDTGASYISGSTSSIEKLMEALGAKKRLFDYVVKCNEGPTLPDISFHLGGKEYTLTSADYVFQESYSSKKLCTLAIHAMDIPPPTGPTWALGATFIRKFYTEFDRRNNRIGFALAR
Nature of the assay: plasma renin assay (inhibition of human renin; angiotensin I generated, measured by radioimmunoassay). Type of assay: biochemical. To be noted: human plasma pool, pH 6.0, 2 h incubation at 37°. In outline:
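Pooled human plasma supplies both renin and angiotensinogen; inhibitor in MES/1% HSA buffer (1% DMSO final) incubated 2 h at 37° at pH 6.0. Angiotensin I generated quantified by radioimmunoassay, inhibition relative to no-inhibitor control, IC50 by nonlinear regression.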
`CC(C)C[C@H](O)[C@H](O)[C@H](CC1CCCCC1)NC(=O)[C@@H](CC(=O)N(CC1CC1)CC1(O)CCCCC1)CC1CC1` [Compound 16, N^4-(cyclopropylmethyl)-N^4-[(1-hydroxycyclohexyl)methyl]-N^1-[1(S)-(cyclohexylmethyl)-2(R),3(S)-dihydroxy-5-methylhexyl]-2(R)-(cyclopropylmethyl)butanediamide] displayed an IC50 of 89 nM.

The molecule `Cc1ccccc1CN(CC(C)(C)O)C(=O)C[C@@H](Cc1csc(N)n1)C(=O)N[C@@H](CC1CCCCC1)[C@@H](O)[C@@H](O)CC(C)C` [Compound 57, N^4-[(2-methylphenyl)methyl]-N^4-(2-hydroxy-2-methylpropyl)-N^1-[1(S)-(cyclohexylmethyl)-2(R),3(S)-dihydroxy-5-methylhexyl]-2(R)-[(2-amino-4-thiazolyl)methyl]butanediamide] had an IC50 of 37 nM.

Turning to `CN(C)C(=O)CN(CC1(O)CCCCC1)C(=O)C[C@@H](CC1CC1)C(=O)N[C@@H](CC1CCCCC1)[C@@H](O)[C@@H]1CC(C)(C)N(C)C1=O` [Compound 38, N^4-[(1-hydroxycyclohexyl)methyl]-N^4-[2-(dimethylamino)-2-oxoethyl]-N^1-[1(S)-(cyclohexylmethyl)-2(S)-hydroxy-2-(1,5,5-trimethyl-2-oxopyrrolidin-3(S)-yl)ethyl]-2(R)-(cyclopropylmethyl)butanediamide], the 50% inhibitory concentration (IC50) came out at 15 nM.

For the molecule `CC(C)C[C@H](O)[C@H](O)[C@H](CC1CCCCC1)NC(=O)[C@@H](CC(=O)N(Cc1ccccn1)CC1(O)CCCCCC1)CC1CC1` [Compound 8, N^4-[(1-hydroxycycloheptyl)methyl]-N^4-(2-pyridinylmethyl)-N^1-[1(S)-(cyclohexylmethyl)-2(R),3(S)-dihydroxy-5-methylhexyl]-2(R)-(cyclopropylmethyl)butanediamide], the IC50 was found to be 65 nM.

For `CC(C)C[C@H](O)[C@H](O)[C@H](CC1CCCCC1)NC(=O)[C@@H](CC(=O)N(CC1CCCCC1)CC(C)(C)O)Cc1c[nH]cn1` [Compound 43, N^4-(cyclohexylmethyl)-N^4-(2-hydroxy-2-methylpropyl)-N^1-[1(S)-(cyclohexylmethyl)-2(R),3(S)-dihydroxy-5-methylhexyl]-2(R)-(1H-imidazol-4-ylmethyl)butanediamide], the IC50 is 14 nM.

The molecule `CC(C)C[C@H](O)[C@H](O)[C@H](CC1CCCCC1)NC(=O)[C@@H](CC(=O)N(CC(=O)N(C)C)CC1(O)CCCCC1)Cc1c[nH]cn1` [Compound 24, N^4-[(1-hydroxycyclohexyl)methyl]-N^4-[2-(dimethylamino)-2-oxoethyl]-N^1-[1(S)-(cyclohexylmethyl)-2(R),3(S)-dihydroxy-5-methylhexyl]-2(R)-(1H-imidazol-4-ylmethyl)-butanediamide] displayed an IC50 of 1.8 nM.

Molecule `CC(C)C[C@H](O)[C@H](O)[C@H](CC1CCCCC1)NC(=O)[C@@H](CC(=O)NC[C@@H](O)C1CCCCC1)CC1CC1` [Compound 20 (S), N^4-(S)-(2-cyclohexyl-2-hydroxyethyl)-N^1-[1(S)-(cyclohexylmethyl)-2(R),3(S)-dihydroxy-5-methylhexyl]-2(R)-(cyclopropylmethyl)butanediamide] showed an IC50 of 150 nM.

For `CC(C)C[C@H](O)[C@H](O)[C@H](CC1CCCCC1)NC(=O)[C@@H](CC(=O)N(Cc1ccco1)CC(C)(C)O)Cc1csc(N)n1` [Compound 55, N^4-(2-furanylmethyl)-N^4-(2-hydroxy-2-methylpropyl)-N^1-[1(S)-(cyclohexylmethyl)-2(R),3(S)-dihydroxy-5-methylhexyl]-2(R)-[(2-amino-4-thiazolyl)methyl]butanediamide], the midpoint of inhibition, the IC50, lay at 21 nM.

Molecule `CC(C)C[C@H](O)[C@H](O)[C@H](CC1CCCCC1)NC(=O)[C@@H](CC(=O)N(CC(=O)C(C)C)CC1CCCCC1)Cc1cscn1` [Compound 61, N^4-(cyclohexylmethyl)-N^4-(3-methyl-2-oxobutyl)-N^1-[1(S)-(cyclohexylmethyl)-2(R),3(S)-dihydroxy-5-methylhexyl]-2(R)-(4-thiazolylmethyl)butanediamide] yielded an IC50 of 9 nM.

As usually defined, the IC50 is the concentration that gives 50% inhibition. High values mean lower potency, low ones higher potency.

Values taken from patent US5523315A, “N-(hydroxyethyl)butanediamide derivatives” (Bio-Mega/Boehringer Ingelheim Research Inc., priority 1993, dated 1996).
